ChEMBL document CHEMBL1122947, “Fluorine-containing amino acids and their derivatives. 4. Synthesis and antibacterial activity of threo and erythro 1-fluorodehydroxylated chloramphenicol analogues” (1985)
Values after ≈ are worked out from the molar mass of the structure shown.

Tests used:
Klebsiella pneumoniae = experiment: In vitro antibacterial activity against Klebsiella pneumoniae; type: functional
Escherichia coli = experiment: In vitro antibacterial activity against Escherichia coli; type: functional
Trichophyton benhamiae = experiment: In vitro antifungal activity against Trichophyton asteroides; type: functional
Pseudomonas aeruginosa = experiment: In vitro antibacterial activity against Pseudomonas aeruginosa; type: functional
Aspergillus fumigatus = experiment: In vitro antifungal activity against Aspergillus fumigatus; type: functional
Streptococcus pyogenes = experiment: In vitro antibacterial activity against Streptococcus pyogenes; type: functional
Trichophyton asteroides = experiment: In vitro antifungal activity against Trichophyton asteroides
Staphylococcus aureus = experiment: In vitro antibacterial activity against Staphylococcus aureus; type: functional
[1] = Klebsiella pneumoniae, read-out: MIC

SMILES	MIC (Klebsiella pneumoniae; [1]) [µg/mL]	MIC (Escherichia coli) [µg/mL]	MIC (Trichophyton benhamiae) [µg/mL]	MIC (Pseudomonas aeruginosa) [µg/mL]	MIC (Aspergillus fumigatus) [µg/mL]	MIC (Streptococcus pyogenes) [µg/mL]	MIC (Trichophyton asteroides) [µg/mL]	MIC (Staphylococcus aureus) [µg/mL]	MIC (Klebsiella pneumoniae) [µg/mL]
O=C(NC(CO)C(F)c1ccccc1[N+](=O)[O-])C(Cl)Cl (stereo not drawn)	> 100	> 100	> 100	> 100	> 100	> 100	> 100	> 100	–
O=C(NC(CO)C(F)c1cccc([N+](=O)[O-])c1)C(Cl)Cl (stereo not drawn)	> 100	> 100	> 100	> 100	> 100	> 100	> 100	> 100	–
O=C(NC(CO)C(F)c1ccccc1)C(Cl)Cl (stereo not drawn)	> 100	> 100	> 100	> 100	> 100	> 100	> 100	> 100	–
O=C(NC(CO)C(F)c1ccc([N+](=O)[O-])cc1)C(Cl)Cl (stereo in doubt; 3)	–	–	–	–	–	–	–	–	>100
O=C(NC(CO)C(F)c1ccc([N+](=O)[O-])cc1)C(Cl)Cl (stereo in doubt; 11)	50 (≈ 154 µM)	> 100	> 100	> 100	> 100	> 100	> 100	> 100	–
